Assay results as given in ChEMBL document CHEMBL3044745, “Synthesis and evaluation of biological and nonlinear optical properties of some novel 2,4-disubstituted [1,3]-thiazoles carrying 2-(aryloxymethyl)-phenyl moiety” (2013).

What was measured:
Format in all cases: functional
Staphylococcus aureus = experiment: Antibacterial activity against Staphylococcus aureus assessed as growth inhibition at 10 ug/disk; details: read-out: IZ
Candida albicans = experiment: Antifungal activity against Candida albicans assessed as growth inhibition at 10 ug/disk; details: read-out: IZ
Aspergillus niger = experiment: Antifungal activity against Aspergillus niger assessed as growth inhibition at 10 ug/disk; details: read-out: IZ
Rattus norvegicus = experiment: Anti-inflammatory activity in Rattus norvegicus Wistar albino (rat) assessed as inhibition of carrageenan-induced paw edema at 10 mg/kg, po relative to untreated control
Pseudomonas aeruginosa = experiment: Antibacterial activity against Pseudomonas aeruginosa assessed as growth inhibition at 10 ug/disk; details: read-out: IZ
Bacillus subtilis = experiment: Antibacterial activity against Bacillus subtilis assessed as growth inhibition at 10 ug/disk; details: read-out: IZ
Escherichia coli = experiment: Antibacterial activity against Escherichia coli assessed as growth inhibition at 10 ug/disk; details: read-out: IZ

SMILES	zone of inhibition at 10 µg/disc (Staphylococcus aureus) [mm]	zone of inhibition at 10 µg/disc (Candida albicans) [mm]	zone of inhibition at 10 µg/disc (Aspergillus niger) [mm]	inhibition in vivo at 10 mg/kg (Rattus norvegicus) [%]	zone of inhibition at 10 µg/disc (Pseudomonas aeruginosa) [mm]	zone of inhibition at 10 µg/disc (Bacillus subtilis) [mm]	zone of inhibition at 10 µg/disc (Escherichia coli) [mm]
Cc1ccc(OCc2ccccc2-c2nc(COc3ccc(Cl)cc3)cs2)cc1	22	20	18	68.7	17	19	24
Cc1cccc(OCc2ccccc2-c2nc(CN3CCN(C(c4ccccc4)c4ccccc4)CC3)cs2)c1	19	10	11	64.1	20	20	22
Cc1ccc(OCc2ccccc2-c2nc(-c3ccc([N+](=O)[O-])cc3)cs2)cc1	12	11	14	56.9	12	10	10
Cc1ccc(OCc2ccccc2-c2nc(-c3cccc(Br)c3)cs2)cc1	10	14	11	44.5	10	12	8
Cc1ccc(OCc2ccccc2-c2nc(CN3CCN(C(c4ccccc4)c4ccccc4)CC3)cs2)cc1	20	10	8	63.9	18	21	18
NC(=O)c1cc(-c2csc(-c3ccccc3COc3ccc(Cl)cc3)n2)ccc1O	28	27	25	72.2	24	26	28
Cc1cccc(OCc2ccccc2-c2nc(-c3cccc(Br)c3)cs2)c1	12	14	16	46.7	10	10	10
Cc1ccc(OCc2ccccc2-c2nc(-c3ccc(O)c(C(N)=O)c3)cs2)cc1	20	20	18	46.7	20	20	19
Cc1cccc(OCc2ccccc2-c2nc(CN3CCN(C(c4ccccc4)c4ccc(Cl)cc4)CC3)cs2)c1 (stereo not drawn)	28	20	18	62.6	25	28	27
Cc1cccc(OCc2ccccc2-c2nc(COc3ccc(Cl)cc3)cs2)c1	24	22	18	67.7	18	22	20
Cc1ccccc1OCc1ccccc1-c1nc(CN2CCN(C(c3ccccc3)c3ccccc3)CC2)cs1	23	9	8	64	18	23	20
Cc1ccccc1OCc1ccccc1-c1nc(-c2ccc(O)c(C(N)=O)c2)cs1	18	16	18	40.5	21	18	20
Clc1ccc(OCc2ccccc2-c2nc(-c3cccc(Br)c3)cs2)cc1	22	20	18	42.9	18	20	22
Cc1ccccc1OCc1ccccc1-c1nc(CN2CCN(C(c3ccccc3)c3ccc(Cl)cc3)CC2)cs1 (stereo not drawn)	28	22	20	63.1	24	28	26
O=C(O)c1cn(C2CC2)c2cc(N3CCNCC3)c(F)cc2c1=O [CIPROFLOXACIN]	26				25	26	28
Cc1ccccc1OCc1ccccc1-c1nc(-c2cc(Cl)sc2S(N)(=O)=O)cs1	22	18	16	70.1	22	20	20

SMILES	zone of inhibition at 10 µg/disc (Staphylococcus aureus) [mm]	zone of inhibition at 10 µg/disc (Candida albicans) [mm]	zone of inhibition at 10 µg/disc (Aspergillus niger) [mm]	inhibition in vivo at 10 mg/kg (Rattus norvegicus) [%]	zone of inhibition at 10 µg/disc (Pseudomonas aeruginosa) [mm]	zone of inhibition at 10 µg/disc (Bacillus subtilis) [mm]	zone of inhibition at 10 µg/disc (Escherichia coli) [mm]
O=[N+]([O-])c1ccc(-c2csc(-c3ccccc3COc3ccc(Cl)cc3)n2)cc1	22	20	18	67.1	18	18	22
Clc1ccc(OCc2csc(-c3ccccc3COc3ccc(Cl)cc3)n2)cc1	28	26	24	76.4	24	27	26
Cc1ccc(OCc2ccccc2-c2nc(-c3cc(Cl)sc3S(N)(=O)=O)cs2)cc1	20	20	16	68.7	20	18	22
Cc1ccccc1OCc1ccccc1-c1nc(COc2ccc(Cl)cc2)cs1	20	20	16	65.1	20	18	22
Cc1ccccc1OCc1ccccc1-c1nc(-c2ccc([N+](=O)[O-])cc2)cs1	10	12	14	46.7	10	12	14
OC(Cn1cncn1)(Cn1cncn1)c1ccc(F)cc1F [FLUCONAZOLE]		26	25				
Cc1cccc(OCc2ccccc2-c2nc(-c3ccc([N+](=O)[O-])cc3)cs2)c1	8	9	8	46.7	10	12	11
Clc1ccc(OCc2ccccc2-c2nc(CN3CCN(C(c4ccccc4)c4ccccc4)CC3)cs2)cc1	28	28	24	64.9	26	26	28
NS(=O)(=O)c1sc(Cl)cc1-c1csc(-c2ccccc2COc2ccc(Cl)cc2)n1	28	26	24	76.4	24	28	26
Cc1ccc(OCc2ccccc2-c2nc(CN3CCN(C(c4ccccc4)c4ccc(Cl)cc4)CC3)cs2)cc1 (stereo not drawn)	28	20	19	56.9	24	28	28
Cc1cccc(OCc2ccccc2-c2nc(-c3ccc(O)c(C(N)=O)c3)cs2)c1	22	18	11	42.9	22	22	20
Cc1cccc(OCc2ccccc2-c2nc(-c3cc(Cl)sc3S(N)(=O)=O)cs2)c1	18	19	18	66.8	18	16	20
Cc1ccccc1OCc1ccccc1-c1nc(-c2cccc(Br)c2)cs1	10	10	11	40.4	8	12	8
Clc1ccc(OCc2ccccc2-c2nc(CN3CCN(C(c4ccccc4)c4ccc(Cl)cc4)CC3)cs2)cc1 (stereo not drawn)	27	28	25	76.4	26	26	28
O=C(O)Cc1ccccc1Nc1c(Cl)cccc1Cl [DICLOFENAC SODIUM]				75.9			
